Test results from patent publication US10253107B2, “Use of endocytosis inhibitors and antibodies for cancer therapy” (THE UNIVERSITY OF QUEENSLAND, priority 2012, dated 2019).
“Also recorded” adds a separate entry of the source. Where two headings read alike, the source gives them in different places.

Key:
[1] = tested on: A431 cells; test: Cetuximab mediated ADCC MTS assay; type: cell-based, human; settings: Dyngo4a 30 μM + cetuximab 60 μg/mL + PBMC, vs cetuximab single treatment
Protocol: MTS assays were performed to measure absorbance at 490 nm. The cell viability is presented as the percentage of untreated viable cells. […] (B-I) MTS assays were performed to measure absorbance at 490 nm. (B-II) The target cell viability is presented as the percentage of untreated viable cells and calculated following the formula: % of untreated cells=(experimental OD−PBMC OD)/(A431 maximum OD−medium OD)×100%
Target cells (A431, number=2,500 per well) were seeded in 96-well round bottom plates and allowed to settle down for 2 hours. […] After 24 hours incubation, 20 μL MTS reagent was added into each well and incubated at 37° C. in 5% CO2 for 2 hours. The optical density (OD value) was read at 490 nm by a microplate spectrophotometer.

[2] = tested on: KJD cells; test: MTS/MTT toxicity assay in the absence of PBMC, KJD; type: cell-based; settings: absence of PBMC/ADCC, single agent or with cetuximab
Protocol: (§1) FIG. 30 is a graphical representation of a multi-parametric FACS analysis showing that manipulation of EGFR trafficking with dynamin inhibitors, Dyngo4a and Pyrimidyn-7, results in enhanced ADCC in cetuximab-sensitive and insensitive cells. cetuximab-dependent ADCC assays were performed essentially according to the procedures outlined in FIGS. 27 and 28. […] (C) Percentage of specific KJD cell death is shown in the presence of dynamin inhibitors only. […] (E) An MTS assay was conducted in the absence of PBMC to assess toxicity of compounds in the absence of ADCC. […] Triton X100 is added as a control for maximum cell death. (F) An MTS assay was conducted in the absence of PBMC to assess toxicity of compounds in the absence of ADCC. […] Triton X100 is added as a control for maximum cell death. (G) An MTS assay was conducted to assess possible toxicity of dynamin inhibitors to PBMC cells. […] Triton X100 is added as a control for maximum cell death.
(§2) Compounds Dyngo4a and Pyrimidyn-7 were tested in both multi-variant FACS analysis assay as described in Example 4 and by MTT assay. In particular, compounds were tested for improvement of cetuximab-dependent ADCC against cetuximab-sensitive A431 cells and cetuximab-resistant KJD cells and for single agent toxicity.

[3] = tested on: PBMC; test: MTS/MTT toxicity of dynamin inhibitors to PBMC; type: cell-based; settings: for toxicity to PBMC: MTS/MTT, single agent
Protocol: Dyngo4a (0 and 30 μM) was added at the end of the incubation. 10% Triton was added to A431 cells after 24-hour incubation with PBMCs for cell death control. The ADCC effects were measured by MTS assay. The cell viability was presented as OD values at 490 nm. The average of OD values released from background was subtracted from effector cell controls (A-II) and target/effector tests (A-III).
as §1, §2

[4] = tested on: A431 cells; test: Flow cytometry-based ADCC assay on A431 cells; type: cell-based, human; settings: FACS; for effect of dynamin inhibitor on cetuximab-dependent ADCC of A431 cells: inhibitor + cetuximab + PBMC
Protocol: Flow cytometry was performed on triplicate tubes per treatment. Target cells were harvested and labeled with 0.5 μM CFSE (Life technologies) for 10 minutes, followed by washing to remove excess dye. […] 30 μM Dyngo4a was added at given time points as described in figure legends. After the incubation, 5 ul of 7-AAD (BD Pharmingen) was added into each tube to indicate the target cells that were killed. Samples were analyzed by flow cytometry (BD FACSCanto). The percentage of specific target cell death was calculated using the following formula:

[5] = tested on: A431 cells; test: MTS/MTT toxicity assay in the absence of PBMC, A431; type: cell-based
Protocol: as §1, §2

[6] = tested on: EGFR endocytosis in A431 cells; test: EGF-Alexa488 uptake immunofluorescence (ligand-induced EGFR endocytosis); type: cell-based, human; settings: 15 min EGF-Alexa488 uptake
Protocol: (§3) FIG. 23 is a photographic representation showing example panels for correlation between inhibited EGFR endocytosis and MHC class I and class II status. (A) Immunofluorescence showing manipulation of EGFR trafficking using a dynamin inhibitor. A431 cells were serum-starved for 3 hours and then treated with different concentrations of dynasore (0, 60 and 100 μM) for 0.5 and 24 hours. 15 minutes EGF-Alexa488 (100 ng/mL) uptakes were performed to monitor the trafficking of the ligand bound EGFRs (in green). The nuclei are shown in blue. (B) immunofluorescence showing changes in MHC class I and class II distributions caused by altered EGFR trafficking. A431 cells were treated with different concentrations of dynasore (0, 60 and 100 μM) for 0.5 hours, followed by fixation and permeabilization. MHC class I and class II were then labeled with primary antibodies PE-HLA-ABC and PE-HLA-DR, respectively, followed by secondary antibody labeling (Alexa 594). MHC I and II are shown in red while the nuclei are shown in blue.
FIG. 29 is a photographic representation showing Dyngo4a inhibition of EGFR endocytosis. […] Immunofluorescence was conducted to confirm the manipulation of EGFR trafficking using Dyngo4a. A431 cells were serum-starved for 3 hours and then treated with different concentrations of (A) Dyngo4a (0 and 30 μM) for 30 min. […] The nuclei are shown in blue. […]

[7] = tested on: A431 cells; test: Immunofluorescence of cetuximab-EGFR internalization, A431; type: cell-based, human; settings: 4-hour time-course, Dyngo4a added
Protocol: (§4) A431 cells were seeded on coverslips in 12-well plates and incubated overnight to reach 80% confluence. […] 30 μM dyngo4a was added at given time points as described in figure legends. The cells were then washed three times in ice cold PBS and fixed in 4% PFA/PBS for 30 minutes, followed by permeabilization in 0.1% TritonX/PBS (PBTX) for 20 minutes. […] The coverslips were mounted on slides in Prolong Gold (Life technologies). Images were acquired using a Zeiss 510 Meta confocal with a 63× objective.

[8] = tested on: KJD cells; test: Flow cytometry-based ADCC assay on KJD cells; type: cell-based, human; settings: for effect of dynamin inhibitor on cetuximab-dependent ADCC of KJD cells: inhibitor + cetuximab + PBMC
Protocol: Flow cytometry was performed on triplicate tubes per treatment. Target cells were harvested and labeled with 0.5 μM CFSE (Life technologies) for 10 minutes, followed by washing to remove excess dye. […] 30 μM Dyngo4a was added at given time points as described in figure legends. After the incubation, 5 ul of 7-AAD (BD Pharmingen) was added into each tube to indicate the target cells that were killed. Samples were analyzed by flow cytometry (BD FACSCanto).

[9] = tested on: KJD cells; test: Immunofluorescence of cetuximab-EGFR trafficking, KJD; type: cell-based, human; settings: incubation with Dyngo4a
Protocol: FIG. 28 is a photographic and graphical representation of a multi-parametric FACS analysis showing that manipulation of EGFR trafficking with dynamin inhibitors results in improved ADCC in cetuximab-insensitive cells. (A) Immunofluorescence imaging of cetuximab trafficking status in KJD cells. […] 7-AAD was added at the end of the 4-hour assay to label dead cells prior to FACS analysis. (B) Gating strategies used for the assessment of specific target cell death. FITC indicates CFSE while PerCP-Cy5.5 indicates 7-AAD. The dead target cells appear in the upper right quadrant, CFSE painted and 7-AAD positive. (C.1) KJD cell death under different conditions. (C.2) The percentage of specific KJD cell death was calculated. Data shown are an average of 3 experiments+/−SEM by Two-Way ANOVA with Bonferroni post test. ****: P≤0.0001; ***: P≤0.001; **: P≤0.01; *: P≤0.05. ns: no significance.
as §4

[10] = tested on: dynamin; settings: cited from earlier work
[11] = tested on: A431 cells; test: Dynasore 24 hour treatment, A431 cells; type: cell-based, human
Protocol: as §3

[12] = tested on: HeLa cells; test: Dynasore 24 hour treatment, HeLa cells; type: cell-based
[13] = tested on: HeLa cells; settings: dose dependent, previous study (23), read-out: IC50 of dynasore mediated endocytosis inhibition; cited from earlier work
[14] = tested on: A431 cells; test: MHC class I and class II immunofluorescence in A431 cells; type: cell-based, human
Protocol: as §3

[15] = A431, dynasore 0, 60, 100 μM, 0.5 hours

Compound: O=C(N/N=C/c1cc(O)c(O)cc1O)c1cc2ccccc2cc1O [Dyngo-4a]
- cetuximab mediated ADCC in presence of dynamin inhibitor (cell viability, MTS) [1]: cells lost more viability
- toxicity to KJD cells [2]: no toxicity as a single agent; also recorded: no significant toxicity on KJD cells
- cell viability of PBMCs (effector cells) ([3]; Dyngo4a alone and with cetuximab, MTS, vs negative and 10% Triton controls): did not cause large cell viability reduction in PBMCs
- toxicity to PBMC [3]: no toxicity as a single agent; also recorded: no significant toxicity
- effect of Dyngo4a on Herceptin-dependent ADCC of A431 cells ([4]; Dyngo4a + Herceptin + PBMC): enhance both cetuximab-dependent and Herceptin-dependent ADCC
- effect of dynamin inhibitor on cetuximab-dependent ADCC of A431 cells [4]: increased level of cetuximab-induced ADCC; also recorded: improve cetuximab-dependent ADCC; also recorded: enhance both cetuximab-dependent and Herceptin-dependent ADCC
- toxicity to A431 cells [5]: no toxicity as a single agent
- toxicity to A431 cells ([5]; human): no significant toxicity on A431 cells
- ligand-induced EGFR endocytosis [6]: has an inhibitory effect on the ligand-induced EGFR endocytosis
- surface and internalized levels of cetuximab [7]: increases surface levels of cetuximab and decreases internalized levels
- cetuximab-induced ADCC with Dyngo4a, KJD cell killing ([8]; Dyngo4a 30 μM + cetuximab 60 μg/mL + PBMC, 4 hours): greater than 40%
- effect of Dyngo4a on Herceptin-dependent ADCC of KJD cells ([8]; Dyngo4a + Herceptin + PBMC, FACS): enhance Herceptin-dependent ADCC of KJD cells even more so
- tumor cell killing by inhibitor alone ([8]; Dyngo4a alone, without cetuximab): did not kill tumor cells
- effect of dynamin inhibitor on cetuximab-dependent ADCC of KJD cells ([8]; FACS): improve cetuximab-dependent ADCC; also recorded: enhance both cetuximab-dependent and Herceptin-dependent ADCC
- plasma membrane expression of EGFR [9]: increased the plasma membrane expression of EGFR

Compound: CCCCCCCCCCCCNc1cc(C)nc(NCCN(C)C)n1 [Pyrimidyn-7]
- toxicity to KJD cells [2]: showed single agent toxicity; also recorded: significant death of KJD cells
- toxicity to PBMC [3]: showed single agent toxicity; also recorded: shows toxicity
- effect of dynamin inhibitor on cetuximab-dependent ADCC of A431 cells [4]: improve cetuximab-dependent ADCC
- toxicity to A431 cells ([5]; MTS/MTT, absence of PBMC/ADCC, single agent or with cetuximab): showed single agent toxicity; also recorded: significant death of A431 cells
- cell death by ADCC in the absence of cetuximab ([8]; KJD cells (FIG. 30C), inhibitor only): Some increase in cell death
- effect of dynamin inhibitor on cetuximab-dependent ADCC of KJD cells ([8]; FACS): improve cetuximab-dependent ADCC

Compound: N#C/C(=C\c1ccc(O)c(O)c1)C(=O)NCCCNC(=O)/C(C#N)=C/c1ccc(O)c(O)c1 [Bis-T-22, 2-cyano-N-{3-[2-cyano-3-(3,4-dihydroxyphenyl)-acryloylamino]-propyl}-3-(3-,4-dihydroxyphenyl)-acrylamide]
- basal dynamin GTPase activity ([10]; absence of PS liposomes, dynamin rings): stimulates basal dynamin GTPase activity
- inhibition of helical dynamin ([10]; dynamin activated by phosphatidylserine (PS) liposomes): potent in vitro inhibitor of dynamin

Compound: O=C(N/N=C/c1ccc(O)c(O)c1)c1cc2ccccc2cc1O [Dynasore, 3-hydroxynaphthalene-2-carboxylic acid (3,4-dihydroxybenzylidene) hydrazide]
- cell morphology after 24 hours dynasore [11]: cellular nuclear condensation
- ligand-induced EGFR endocytosis [6]: successfully functioned as an endocytosis inhibitor
- cell morphology after 24 hours dynasore [12]: appeared apoptotic or to have cytokinetic defects
- IC50 [13]: ~15 µM
- plasma membrane levels of MHCI ([14]; A431, EGF stimulation coupled with dynasore inhibition): no longer detectable
- MHCI signal [14, 15]: increasing MHCI signal
- MHCII signal [14, 15]: decrease in MHCII signal
